# Experiments:
# S100A4 = target: T1, S100A4 (Homo sapiens, UniProt P26447); assay: Pull-down assay with immobilized protein and LSM libraries; type: binding; conditions: H14 library; 1:1 binding assumed; read-out: Surface mapping KD (apparent)
# T1 construct: made in house; host or cells: Escherichia coli BL21(DE3)
# Outline: (§1)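 Buffers were HEPES pH 7.4 with 150 mM NaCl, plus 1 mM TCEP and 1 mM CaCl2 (50 mM HEPES) for S100A4 and S100B, 1 mM TCEP for Gal-1, and no additive for RecQ-WH. Immobilized protein at 64 µM was equilibrated 30 min with the LSM sublibrary, and unbound probes were measured by LC-MS.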
# Gal-1 [1] = target: T2, Gal-1 (Homo sapiens, UniProt P09382); assay: as above; type: binding; conditions: H14 library; 1:1 binding assumed; read-out: Surface mapping KD (apparent)
# T2 construct: made in house; host or cells: E. coli BL21(DE3)
# T2 sequence (P09382 whole entry): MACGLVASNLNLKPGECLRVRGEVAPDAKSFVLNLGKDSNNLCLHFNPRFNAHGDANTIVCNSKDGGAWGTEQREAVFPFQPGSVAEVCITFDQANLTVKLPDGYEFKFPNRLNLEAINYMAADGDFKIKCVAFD
# Outline: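 His-tagged protein immobilized on Co-NTA resin (64 µM) in 20 mM HEPES pH 7.4, 150 mM NaCl, equilibrated 30 min at room temperature with foldamer LSM sublibraries at equimolar total concentration. Unbound fractions quantified by HPLC-MS versus protein-free resin control; apparent KD assumes 1:1 binding.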
# CaM [2] = target: T3, CaM (Bos taurus, UniProt P62157); assay: as above; type: binding, bovine; conditions: H14 library; 1:2 stoichiometry assumed; read-out: Surface mapping KD (apparent)
# T3 construct: made in house; host or cells: E. coli BL21 (DE3)
# Outline: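 His-tagged protein immobilized on Co-NTA resin, equilibrated 30 min at room temperature with LSM sublibraries (64 members, […]), equimolar protein to total probe. CaM buffer: 20 mM HEPES pH 7.4, 150 mM NaCl, 5 mM CaCl2. Bound fractions from HPLC-MS loss of unbound probe versus protein-free resin control; Kd derived.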
# S100B [3] = target: T4, S100B (Homo sapiens, UniProt P04271); assay: Competition pull-down with native ligand RSK1 (689–735); type: binding; conditions: H14 library; competitor peptide 200 µM; read-out: Surface mapping KD (apparent), competition
# T4 construct: made in house; host or cells: Escherichia coli BL21(DE3)
# T4 sequence (P04271 1-92): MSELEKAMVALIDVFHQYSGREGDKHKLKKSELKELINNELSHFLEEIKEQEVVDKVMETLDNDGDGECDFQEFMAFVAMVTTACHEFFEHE
# Gal-1 [4] = target: T2, Gal-1; assay: Competition pull-down with lactose; type: binding; conditions: H14 library; lactose 10 mM; read-out: Surface mapping KD (apparent), competition
# Outline: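 His6-tagged proteins immobilized on Co-NTA resin at 64 µM final with 64-member LSM foldamer sublibraries (1 M each, as printed) in pH 7.4 HEPES/NaCl buffers (Ca2+/TCEP per target), 30 min RT; competitor peptides 200 µM final, lactose 10 mM for Gal-1. Bound fractions from LC-MS loss vs protein-free resin; KD assuming 1:1 binding.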
# S100B [5] = target: T4, S100B; assay: Pull-down assay with immobilized protein and LSM libraries; type: binding; conditions: H14 library; 1:1 binding assumed; read-out: Surface mapping KD (apparent)
# Outline: as §1
# CaM [6] = target: T3, CaM; assay: Competition pull-down with native ligand TRPV1-Ct15; type: binding, bovine; conditions: H14 library; competitor peptide 200 µM; read-out: Surface mapping KD (apparent), competition
# T1 sequence (P26447 whole entry): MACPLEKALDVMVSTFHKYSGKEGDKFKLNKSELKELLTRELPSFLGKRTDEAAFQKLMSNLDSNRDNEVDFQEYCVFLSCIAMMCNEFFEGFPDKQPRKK
SMILES,Kd (S100A4),Kd (Gal-1 [1]),Kd (CaM [2]),Kd (S100B [3]),Kd (Gal-1 [4]),Kd (S100B [5]),Kd (CaM [6])
NC(=O)C[C@@H](CC(=O)N[C@H]1CCCC[C@@H]1C(N)=O)NC(=O)[C@H]1CCCC[C@@H]1NC(=O)[C@H]1CCCC[C@@H]1NC(=O)C[C@H](Cc1ccc(O)cc1)NC(=O)[C@H]1CCCC[C@@H]1N [H14 YN],435 µM,313 µM,111 µM,476 µM,271 µM,,
C[C@@H](O)[C@@H](CC(=O)N[C@H]1CCCC[C@@H]1C(=O)N[C@H]1CCCC[C@@H]1C(=O)N[C@@H](CC(N)=O)CC(=O)N[C@H]1CCCC[C@@H]1C(N)=O)NC(=O)[C@H]1CCCC[C@@H]1N [H14 TN],,275 µM,176 µM,445 µM,460 µM,,292 µM
NC(=O)CC[C@@H](CC(=O)N[C@H]1CCCC[C@@H]1C(N)=O)NC(=O)[C@H]1CCCC[C@@H]1NC(=O)[C@H]1CCCC[C@@H]1NC(=O)C[C@H](CO)NC(=O)[C@H]1CCCC[C@@H]1N [H14 SQ],,275 µM,176 µM,445 µM,460 µM,,292 µM
NC(=O)CC[C@@H](CC(=O)N[C@H]1CCCC[C@@H]1C(N)=O)NC(=O)[C@H]1CCCC[C@@H]1NC(=O)[C@H]1CCCC[C@@H]1NC(=O)C[C@H](Cc1ccc(O)cc1)NC(=O)[C@H]1CCCC[C@@H]1N [H14 YQ],227 µM,238 µM,123 µM,449 µM,439 µM,480 µM,
CSCC[C@@H](CC(=O)N[C@H]1CCCC[C@@H]1C(=O)N[C@H]1CCCC[C@@H]1C(=O)N[C@@H](CO)CC(=O)N[C@H]1CCCC[C@@H]1C(N)=O)NC(=O)[C@H]1CCCC[C@@H]1N [H14 MS],320 µM,,106 µM,391 µM,,,431 µM
CSCC[C@@H](CC(=O)N[C@H]1CCCC[C@@H]1C(=O)N[C@H]1CCCC[C@@H]1C(=O)N[C@@H](CC(N)=O)CC(=O)N[C@H]1CCCC[C@@H]1C(N)=O)NC(=O)[C@H]1CCCC[C@@H]1N [H14 MN],,399 µM,122 µM,449 µM,495 µM,,
NC(=O)C[C@@H](CC(=O)N[C@H]1CCCC[C@@H]1C(=O)N[C@H]1CCCC[C@@H]1C(=O)N[C@H](CC(=O)N[C@H]1CCCC[C@@H]1C(N)=O)Cc1ccc(O)cc1)NC(=O)[C@H]1CCCC[C@@H]1N [H14 NY],,210 µM,109 µM,444 µM,337 µM,193 µM,270 µM
CSCC[C@@H](CC(=O)N[C@H]1CCCC[C@@H]1C(=O)N[C@H]1CCCC[C@@H]1C(=O)N[C@@H](CCC(N)=O)CC(=O)N[C@H]1CCCC[C@@H]1C(N)=O)NC(=O)[C@H]1CCCC[C@@H]1N [H14 MQ],476 µM,,145 µM,394 µM,,,489 µM
NC(=O)C[C@@H](CC(=O)N[C@H]1CCCC[C@@H]1C(N)=O)NC(=O)[C@H]1CCCC[C@@H]1NC(=O)[C@H]1CCCC[C@@H]1NC(=O)C[C@H](CC(N)=O)NC(=O)[C@H]1CCCC[C@@H]1N [H14 NN],,246 µM,162 µM,120 µM,444 µM,,290 µM
C[C@@H](O)[C@@H](CC(=O)N[C@H]1CCCC[C@@H]1C(N)=O)NC(=O)[C@H]1CCCC[C@@H]1NC(=O)[C@H]1CCCC[C@@H]1NC(=O)C[C@H](Cc1ccc(O)cc1)NC(=O)[C@H]1CCCC[C@@H]1N [H14 YT],222 µM,396 µM,30 µM,403 µM,,416 µM,
NC(=O)CC[C@@H](CC(=O)N[C@H]1CCCC[C@@H]1C(N)=O)NC(=O)[C@H]1CCCC[C@@H]1NC(=O)[C@H]1CCCC[C@@H]1NC(=O)C[C@H](CC(N)=O)NC(=O)[C@H]1CCCC[C@@H]1N [H14 NQ],,257 µM,190 µM,478 µM,,,222 µM
C[C@@H](CC(=O)N[C@H]1CCCC[C@@H]1C(=O)N[C@H]1CCCC[C@@H]1C(=O)N[C@H](CC(=O)N[C@H]1CCCC[C@@H]1C(N)=O)Cc1c[nH]c2ccccc12)NC(=O)[C@H]1CCCC[C@@H]1N [H14 AW],42 µM,203 µM,2 µM,127 µM,,42 µM,297 µM
CSCC[C@@H](CC(=O)N[C@H]1CCCC[C@@H]1C(N)=O)NC(=O)[C@H]1CCCC[C@@H]1NC(=O)[C@H]1CCCC[C@@H]1NC(=O)C[C@H](CC(=O)O)NC(=O)[C@H]1CCCC[C@@H]1N [H14 DM],,,,159 µM,397 µM,,322 µM

# More lines, main results first:
Kd (S100A4),Kd (Gal-1 [1]),Kd (CaM [2]),Kd (S100B [3]),Kd (Gal-1 [4]),Kd (S100B [5]),SMILES,Kd (CaM [6])
35 µM,114 µM,38 µM,393 µM,375 µM,299 µM,CC(C)[C@@H](CC(=O)N[C@H]1CCCC[C@@H]1C(=O)N[C@H]1CCCC[C@@H]1C(=O)N[C@@H](C)CC(=O)N[C@H]1CCCC[C@@H]1C(N)=O)NC(=O)[C@H]1CCCC[C@@H]1N [H14 VA],
10 µM,307 µM,98 µM,359 µM,487 µM,256 µM,CSCC[C@@H](CC(=O)N[C@H]1CCCC[C@@H]1C(N)=O)NC(=O)[C@H]1CCCC[C@@H]1NC(=O)[C@H]1CCCC[C@@H]1NC(=O)C[C@H](C)NC(=O)[C@H]1CCCC[C@@H]1N [H14 AM],
34 µM,160 µM,8 µM,294 µM,425 µM,170 µM,CC(C)C[C@@H](CC(=O)N[C@H]1CCCC[C@@H]1C(=O)N[C@H]1CCCC[C@@H]1C(=O)N[C@@H](C)CC(=O)N[C@H]1CCCC[C@@H]1C(N)=O)NC(=O)[C@H]1CCCC[C@@H]1N [H14 LA],
6 µM,100 µM,42 µM,316 µM,201 µM,153 µM,CC(C)[C@@H](CC(=O)N[C@H]1CCCC[C@@H]1C(N)=O)NC(=O)[C@H]1CCCC[C@@H]1NC(=O)[C@H]1CCCC[C@@H]1NC(=O)C[C@H](C)NC(=O)[C@H]1CCCC[C@@H]1N [H14 AV],
7 µM,248 µM,13 µM,238 µM,,108 µM,CC[C@H](C)[C@@H](CC(=O)N[C@H]1CCCC[C@@H]1C(N)=O)NC(=O)[C@H]1CCCC[C@@H]1NC(=O)[C@H]1CCCC[C@@H]1NC(=O)C[C@H](C)NC(=O)[C@H]1CCCC[C@@H]1N [H14 AI],
66 µM,336 µM,39 µM,294 µM,,162 µM,CC(C)C[C@@H](CC(=O)N[C@H]1CCCC[C@@H]1C(=O)N[C@H]1CCCC[C@@H]1C(=O)N[C@H](CC(=O)N[C@H]1CCCC[C@@H]1C(N)=O)[C@@H](C)O)NC(=O)[C@H]1CCCC[C@@H]1N [H14 LT],
284 µM,289 µM,40 µM,221 µM,,77 µM,CC(C)[C@@H](CC(=O)N[C@H]1CCCC[C@@H]1C(=O)N[C@H]1CCCC[C@@H]1C(=O)N[C@@H](CCCNC(=N)N)CC(=O)N[C@H]1CCCC[C@@H]1C(N)=O)NC(=O)[C@H]1CCCC[C@@H]1N [H14 VR],
19 µM,185 µM,51 µM,373 µM,333 µM,142 µM,CC[C@H](C)[C@@H](CC(=O)N[C@H]1CCCC[C@@H]1C(=O)N[C@H]1CCCC[C@@H]1C(=O)N[C@H](CC(=O)N[C@H]1CCCC[C@@H]1C(N)=O)[C@@H](C)O)NC(=O)[C@H]1CCCC[C@@H]1N [H14 IT],

# Reference: article PMC8162404, “Proteomimetic surface fragments distinguish targets by function” (Chemical Science, 2020)
